According to article PMC5612656, “In vitro and in vivo effects of 2,4 diaminoquinazoline inhibitors of the decapping scavenger enzyme DcpS: Context-specific modulation of SMN transcript levels” (PLoS ONE, 2017):

Tested on: spinal cord transcriptome
Assay: RNA-Seq of spinal cord tissue from 2B/- and 2B/+ mice
Format: in vivo, mouse
[1] = 2B+ spinal cord RNA Seq polyA, WT-RG vs. WT-Veh, adjusted p-value 1.01E-05
[2] = 2B+ spinal cord RNA Seq polyA, WT-RG vs. WT-Veh, adjusted p-value 3.86E-06

Nc1nc(N)c2c(OCC3CCN(Cc4c(Cl)cccc4Cl)CC3)cccc2n1 [RG3039]
log2(fold-change) 4632404H12Rik transcript [1]: 1.233 | log2(fold-change) Ifi44 transcript [1]: 3.126 | log2(fold-change) Snhg11 transcript [1]: 0.9645 | log2(fold-change) Scn10a transcript [2]: -4.931 | log2(fold-change) Tmem233 transcript [2]: -5.091 | log2(fold-change) 1700024P16Rik (2B-Veh vs 2B-RG3039): -0.9143 | log2(fold-change) 2010001M06Rik (2B-Veh vs 2B-RG3039): -0.4589 | log2(fold-change) 2810417H13Rik (2B-Veh vs 2B-RG3039): 0.7557 | log2(fold-change) 2810459M11Rik (2B-Veh vs 2B-RG3039): 0.8489 | log2(fold-change) 6330444E15Rik (2B-Veh vs 2B-RG3039): -1.493 | log2(fold-change) 8430408G22Rik (2B-Veh vs 2B-RG3039): -1.92 | log2(fold-change) A230028O05Rik (2B-Veh vs 2B-RG3039): -1.123 | log2(fold-change) AI429214 (2B-Veh vs 2B-RG3039): -0.7864 | log2(fold-change) AW495222 (2B-Veh vs 2B-RG3039): -0.8389 | log2(fold-change) Abcc4 (2B-Veh vs 2B-RG3039): -0.4948 | log2(fold-change) Acacb (2B-Veh vs 2B-RG3039): -0.9081 | log2(fold-change) Acer2 (2B-Veh vs 2B-RG3039): -1.144 | log2(fold-change) Ada (2B-Veh vs 2B-RG3039): -2.097 | log2(fold-change) Adhfe1 (2B-Veh vs 2B-RG3039): -0.3934 | log2(fold-change) Adipor2 (2B-Veh vs 2B-RG3039): -1.046 | log2(fold-change) Adm (2B-Veh vs 2B-RG3039): -0.7407 | log2(fold-change) Alox12 (2B-Veh vs 2B-RG3039): 1.236 | log2(fold-change) Alpl (2B-Veh vs 2B-RG3039): 0.9933 | log2(fold-change) Angptl2 (2B-Veh vs 2B-RG3039): 0.7515 | log2(fold-change) Angptl4 (2B-Veh vs 2B-RG3039): -1.6266 | log2(fold-change) Apln (2B-Veh vs 2B-RG3039): 0.547 | log2(fold-change) Aplnr (2B-Veh vs 2B-RG3039): 1.065 | log2(fold-change) Arrdc2 (2B-Veh vs 2B-RG3039): -1.418 | log2(fold-change) Arrdc3 (2B-Veh vs 2B-RG3039): -0.727 | log2(fold-change) Aspm (2B-Veh vs 2B-RG3039): 0.9497 | log2(fold-change) Aurkb (2B-Veh vs 2B-RG3039): 0.7105 | log2(fold-change) BC049352 (2B-Veh vs 2B-RG3039): -1.185 | log2(fold-change) BC064078 (2B-Veh vs 2B-RG3039): -0.6877 | log2(fold-change) Barx2 (2B-Veh vs 2B-RG3039): 0.4279 | log2(fold-change) Bdh2 (2B-Veh vs 2B-RG3039): -0.7221 | log2(fold-change) Bst2 (2B-Veh vs 2B-RG3039): 1.093 | log2(fold-change) Btbd16 (2B-Veh vs 2B-RG3039): -0.8478 | log2(fold-change) Bub1b (2B-Veh vs 2B-RG3039): 0.7302 | log2(fold-change) C130074G19Rik (2B-Veh vs 2B-RG3039): 0.558 | log2(fold-change) C330021F23Rik (2B-Veh vs 2B-RG3039): 1.369 | log2(fold-change) C430049B03Rik (2B-Veh vs 2B-RG3039): 0.7515 | log2(fold-change) Casc5 (2B-Veh vs 2B-RG3039): 0.9628 | log2(fold-change) Ccdc150 (2B-Veh vs 2B-RG3039): -0.9419 | log2(fold-change) Ccna2 (2B-Veh vs 2B-RG3039): 0.5769 | log2(fold-change) Ccnb1 (2B-Veh vs 2B-RG3039): 0.5224 | log2(fold-change) Ccnb2 (2B-Veh vs 2B-RG3039): 0.5384 | log2(fold-change) Cd101 (2B-Veh vs 2B-RG3039): -0.9911 | log2(fold-change) Cd248 (2B-Veh vs 2B-RG3039): 0.749 | log2(fold-change) Cdk1 (2B-Veh vs 2B-RG3039): 0.4623 | log2(fold-change) Cdkn1a (2B-Veh vs 2B-RG3039): -0.7839 | log2(fold-change) Chaf1b (2B-Veh vs 2B-RG3039): 0.7063 | log2(fold-change) Chodl (2B-Veh vs 2B-RG3039): 0.3892 | log2(fold-change) Col8a1 (2B-Veh vs 2B-RG3039): 0.5045 | log2(fold-change) Col12a1 (2B-Veh vs 2B-RG3039): 0.6621 | log2(fold-change) Colq (2B-Veh vs 2B-RG3039): -0.452 | log2(fold-change) Crispld1 (2B-Veh vs 2B-RG3039): 0.7708 | log2(fold-change) Cth (2B-Veh vs 2B-RG3039): -0.9118 | log2(fold-change) Cxcl12 (2B-Veh vs 2B-RG3039): 0.9102 | log2(fold-change) D630039A03Rik (2B-Veh vs 2B-RG3039): -0.7287 | log2(fold-change) Dao (2B-Veh vs 2B-RG3039): -0.6435 | log2(fold-change) Dcxr (2B-Veh vs 2B-RG3039): -0.6455 | log2(fold-change) Ddit4 (2B-Veh vs 2B-RG3039): -0.977 | log2(fold-change) Ddo (2B-Veh vs 2B-RG3039): -0.6951 | log2(fold-change) Depdc1b (2B-Veh vs 2B-RG3039): 0.6712 | log2(fold-change) Dlgap5 (2B-Veh vs 2B-RG3039): 0.6868 | log2(fold-change) Dnah8 (2B-Veh vs 2B-RG3039): 0.7242 | log2(fold-change) Dtl (2B-Veh vs 2B-RG3039): 0.8053 | log2(fold-change) E230015J15Rik (2B-Veh vs 2B-RG3039): -1.036 | log2(fold-change) Edn1 (2B-Veh vs 2B-RG3039): -1.282 | log2(fold-change) Ednrb (2B-Veh vs 2B-RG3039): 0.7966 | log2(fold-change) Egfl6 (2B-Veh vs 2B-RG3039): 0.8631 | log2(fold-change) Elf5 (2B-Veh vs 2B-RG3039): 0.6236 | log2(fold-change) Entpd2 (2B-Veh vs 2B-RG3039): 0.5977 | log2(fold-change) Espl1 (2B-Veh vs 2B-RG3039): 0.7643 | log2(fold-change) Etnppl (2B-Veh vs 2B-RG3039): -2.764 | log2(fold-change) Ets1 (2B-Veh vs 2B-RG3039): 0.8775 | log2(fold-change) Fabp7 (2B-Veh vs 2B-RG3039): 0.8454 | log2(fold-change) Fam64a (2B-Veh vs 2B-RG3039): 0.6855 | log2(fold-change) Fam107a (2B-Veh vs 2B-RG3039): -1.657 | log2(fold-change) Fam214a (2B-Veh vs 2B-RG3039): -0.4707 | log2(fold-change) Fam83d (2B-Veh vs 2B-RG3039): -1.4639 | log2(fold-change) Fas (2B-Veh vs 2B-RG3039): -0.8656 | log2(fold-change) Fgf21 (2B-Veh vs 2B-RG3039): -1 | log2(fold-change) Fgfr4 (2B-Veh vs 2B-RG3039): 1.087 | log2(fold-change) Fkbp5 (2B-Veh vs 2B-RG3039): -1.583 | log2(fold-change) Fli1 (2B-Veh vs 2B-RG3039): 0.4642 | log2(fold-change) Fzd10 (2B-Veh vs 2B-RG3039): 1.186 | log2(fold-change) Galnt15 (2B-Veh vs 2B-RG3039): -1.568 | log2(fold-change) Gatsl3 (2B-Veh vs 2B-RG3039): -1.006 | log2(fold-change) Gkn3 (2B-Veh vs 2B-RG3039): 1.302 | log2(fold-change) Glul (2B-Veh vs 2B-RG3039): -0.8158 | log2(fold-change) Gm266 (2B-Veh vs 2B-RG3039): 0.9562 | log2(fold-change) Gm807 (2B-Veh vs 2B-RG3039): -1.6695
